For orientation: AUC means the area under the concentration-time curve, a measure of exposure. Broadly, the IC50 is the concentration that inhibits the measured activity by half. Low values mean higher potency, high ones lower potency.

Structures are written as SMILES.

Our source for the AUC and IC50 values is ChEMBL document CHEMBL1151575, “J-104,123, a novel and orally-active inhibitor of squalene synthase: Stereoselective synthesis and cholesterol lowering effects in dogs” (Bioorg Med Chem Lett, 1996).

Series [1] in a line: Area under the curve for compound was evaluated in dog at a dose of 20 mg/kg. The format is ADME, organism-based, Canis lupus familiaris. Particulars: in vivo. Set-up: dose 20 mg/kg.
Series [2] concerns the target T1, Squalene synthase (Homo sapiens, UniProt P37268).
T1 sequence (P37268 whole entry): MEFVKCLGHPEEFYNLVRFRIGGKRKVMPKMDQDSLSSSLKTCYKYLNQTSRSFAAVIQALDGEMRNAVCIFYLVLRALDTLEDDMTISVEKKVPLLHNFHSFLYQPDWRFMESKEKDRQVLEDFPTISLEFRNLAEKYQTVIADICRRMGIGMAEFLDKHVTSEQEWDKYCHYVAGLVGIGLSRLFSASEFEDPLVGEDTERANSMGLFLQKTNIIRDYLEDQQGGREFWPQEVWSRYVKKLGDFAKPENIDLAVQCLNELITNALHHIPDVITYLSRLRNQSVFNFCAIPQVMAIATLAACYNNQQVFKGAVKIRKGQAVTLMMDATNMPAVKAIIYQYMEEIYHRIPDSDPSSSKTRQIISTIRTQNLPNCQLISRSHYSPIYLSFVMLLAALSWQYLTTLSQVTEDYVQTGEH
The series can be described thus: Inhibitory activity against squalene synthase (SQS) obtained from HepG2 cells. The format is cell-based.

Series [3] in a line: Area under the curve for compound was evaluated in dog at a dose of 10 mg/kg. In kind it is ADME, organism-based, Canis lupus familiaris. Set-up: dose 10 mg/kg. Conditions: in vivo.

In turn, `C[C@@H](CC(=O)O)CC(=O)N[C@@H](C)[C@H](/C=C/c1ccc2ccccc2c1)Cc1ccc(Cl)c(Cl)c1` yielded an AUC in series [1] of 54000 ng·h/mL. This compound yielded an IC50 in series [2] of 2.5 nM.

Consider `C[C@@H](CC(=O)O)CC(=O)N[C@@H](C)[C@@H](Cc1ccc(Cl)c(Cl)c1)c1ccc(-c2ccccc2)c(F)c1`, for which the AUC in series [3] was 9900 ng·h/mL. Further, the IC50 in series [2] was 3.9 nM.

On to `C[C@H](NC(=O)C[C@@H](CC(=O)O)C(=O)O)[C@@H](Cc1ccc(Cl)c(Cl)c1)c1ccc(-c2ccccc2)c(F)c1`, for which the AUC in series [1] worked out at 900 ng·h/mL.
